# Source: ChEMBL document CHEMBL1275529, “Improved antimicrobial activity of linezolid against vancomycin-intermediate Staphylococcus aureus” (2008)
# Experiments:
# Staphylococcus aureus [1] = assay: Antibacterial activity against vancomycin-intermediate Staphylococcus aureus BR5-1 after 24 hrs by Etest method; assay type: functional; conditions: BR5-1, 24 h
# Staphylococcus aureus [2] = assay: Antibacterial activity against vancomycin-intermediate Staphylococcus aureus Mu50 after 24 hrs by Etest method; assay type: functional; conditions: Mu50, 24 h
# Staphylococcus aureus [3] = assay: Antibacterial activity against vancomycin-susceptible Staphylococcus aureus N315-LR5-P1 assessed as inhibition of bacterial growth in brain heart infusion broth medium; assay type: functional
# Staphylococcus aureus [4] = assay: Antibacterial activity against vancomycin-susceptible Staphylococcus aureus NJ after 24 hrs by Etest method; assay type: functional
# Staphylococcus aureus [5] = assay: Antibacterial activity against vancomycin-intermediate Staphylococcus aureus BR3 after 24 hrs by Etest method; assay type: functional; conditions: BR3, 24 h
# Staphylococcus aureus [6] = assay: Antibacterial activity against vancomycin-susceptible Staphylococcus aureus N315-LR5-P1 assessed as inhibition of bacterial growth in Mueller-Hinton broth medium; assay type: functional
# Staphylococcus aureus [7] = assay: Antibacterial activity against vancomycin-susceptible Staphylococcus aureus BR5-1 after 24 hrs by Etest method; assay type: functional; conditions: BR5-1, 24 h
# Staphylococcus aureus [8] = assay: microbe, parasite or virus in culture; conditions: Staphylococcus aureus, 28160, 24 h
# Description: Antibacterial activity against vancomycin-intermediate Staphylococcus aureus 28160 phenotypic revertant after 24 hrs by Etest method
# Staphylococcus aureus [9] = assay: Antibacterial activity against vancomycin-intermediate Staphylococcus aureus NJ after 24 hrs by Etest method; assay type: functional
# Staphylococcus aureus [10] = assay: Antibacterial activity against vancomycin-intermediate Staphylococcus aureus MI after 24 hrs by Etest method; assay type: functional
# Staphylococcus aureus [11] = assay: Antibacterial activity against vancomycin-intermediate Staphylococcus aureus 99/3700-W phenotypic revertant after 24 hrs by Etest method; assay type: functional
# Staphylococcus aureus [12] = assay: Antibacterial activity against vancomycin-intermediate Staphylococcus aureus PC after 24 hrs by Etest method
# Staphylococcus aureus [13] = assay: Antibacterial activity against vancomycin-intermediate Staphylococcus aureus Mu50 phenotypic revertant after 24 hrs by Etest method; assay type: functional; conditions: Mu50, 24 h
# Staphylococcus aureus [14] = assay: Antibacterial activity against vancomycin-susceptible Staphylococcus aureus 99/3700-W after 24 hrs by Etest method; assay type: functional
# Staphylococcus aureus [15] = assay: Antibacterial activity against vancomycin-susceptible Staphylococcus aureus MI after 24 hrs by Etest method; assay type: functional
# Staphylococcus aureus [16] = assay: Antibacterial activity against vancomycin-susceptible Staphylococcus aureus BR4 after 24 hrs by Etest method; assay type: functional; conditions: BR4, 24 h
# Staphylococcus aureus [17] = assay: Antibacterial activity against vancomycin-susceptible Staphylococcus aureus N315-LR5-P1-1 assessed as inhibition of bacterial growth in Mueller-Hinton broth medium; assay type: functional
# Staphylococcus aureus [18] = assay: Antibacterial activity against vancomycin-susceptible Staphylococcus aureus Mu50 after 24 hrs by Etest method; conditions: Mu50, 24 h
# Staphylococcus aureus [19] = assay: Antibacterial activity against vancomycin-intermediate Staphylococcus aureus BR1 phenotypic revertant after 24 hrs by Etest method; assay type: functional; conditions: BR1, 24 h
# Staphylococcus aureus [20] = assay: Antibacterial activity against vancomycin-intermediate Staphylococcus aureus 99/3759-V after 24 hrs by Etest method; assay type: functional
# Staphylococcus aureus [21] = assay: Antibacterial activity against vancomycin-susceptible Staphylococcus aureus N315-LR5-P1-4 assessed as inhibition of bacterial growth in Mueller-Hinton broth medium; assay type: functional
# Staphylococcus aureus [22] = assay: Antibacterial activity against vancomycin-susceptible Staphylococcus aureus N315-LR5-P1-3 assessed as inhibition of bacterial growth in Mueller-Hinton broth medium; assay type: functional
# Staphylococcus aureus [23] = assay: Antibacterial activity against vancomycin-intermediate Staphylococcus aureus AMC11094 after 24 hrs by Etest method; conditions: AMC11094, 24 h
# Staphylococcus aureus [24] = assay: Antibacterial activity against vancomycin-intermediate Staphylococcus aureus BR1 after 24 hrs by Etest method; assay type: functional; conditions: BR1, 24 h
# Staphylococcus aureus [25] = assay: Antibacterial activity against vancomycin-intermediate Staphylococcus aureus NJ phenotypic revertant after 24 hrs by Etest method
# Staphylococcus aureus [26] = assay: Antibacterial activity against vancomycin-susceptible Staphylococcus aureus N315-LR5-P1-2 assessed as inhibition of bacterial growth in brain heart infusion broth medium; conditions: N315-LR5-P1-2, Brain
# Staphylococcus aureus [27] = assay: Antibacterial activity against vancomycin-susceptible Staphylococcus aureus BR1 after 24 hrs by Etest method; assay type: functional; conditions: BR1, 24 h
# Staphylococcus aureus [28] = assay: Antibacterial activity against vancomycin-intermediate Staphylococcus aureus BR2 after 24 hrs by Etest method; assay type: functional; conditions: BR2, 24 h
# Staphylococcus aureus [29] = assay: Antibacterial activity against vancomycin-intermediate Staphylococcus aureus IL after 24 hrs by Etest method
# Staphylococcus aureus [30] = assay: Antibacterial activity against vancomycin-susceptible Staphylococcus aureus N315-LR5-P1-4 assessed as inhibition of bacterial growth in brain heart infusion broth medium; assay type: functional; conditions: N315-LR5-P1-4, Brain
# Staphylococcus aureus [31] = assay: Antibacterial activity against vancomycin-intermediate Staphylococcus aureus BR4 after 24 hrs by Etest method; assay type: functional; conditions: BR4, 24 h
# Staphylococcus aureus [32] = assay: Antibacterial activity against vancomycin-intermediate Staphylococcus aureus 99/3759-V phenotypic revertant after 24 hrs by Etest method; assay type: functional
# Staphylococcus aureus [33] = assay: Antibacterial activity against vancomycin-susceptible Staphylococcus aureus AMC11094 after 24 hrs by Etest method; assay type: functional; conditions: AMC11094, 24 h
# Staphylococcus aureus [34] = assay: Antibacterial activity against vancomycin-intermediate Staphylococcus aureus MI phenotypic revertant after 24 hrs by Etest method; assay type: functional
# Staphylococcus aureus [35] = assay: Antibacterial activity against vancomycin-susceptible Staphylococcus aureus 28160 after 24 hrs by Etest method; assay type: functional; conditions: Staphylococcus aureus, 28160, 24 h
# Staphylococcus aureus [36] = assay: Antibacterial activity against vancomycin-intermediate Staphylococcus aureus 28160 after 24 hrs by Etest method; assay type: functional; conditions: Staphylococcus aureus, 28160, 24 h
# Staphylococcus aureus [37] = assay: Antibacterial activity against vancomycin-intermediate Staphylococcus aureus 99/3700-W after 24 hrs by Etest method; assay type: functional
# Staphylococcus aureus [38] = assay: Antibacterial activity against vancomycin-intermediate Staphylococcus aureus LIM2 phenotypic revertant after 24 hrs by Etest method; assay type: functional; conditions: LIM2, 24 h
# Staphylococcus aureus [39] = assay: Antibacterial activity against vancomycin-susceptible Staphylococcus aureus 99/3759-V after 24 hrs by Etest method; assay type: functional
# Staphylococcus aureus [40] = assay: Antibacterial activity against vancomycin-intermediate Staphylococcus aureus BR5-1 phenotypic revertant after 24 hrs by Etest method; assay type: functional; conditions: BR5-1, 24 h
# Staphylococcus aureus [41] = assay: Antibacterial activity against vancomycin-intermediate Staphylococcus aureus LIM2 after 24 hrs by Etest method; assay type: functional; conditions: LIM2, 24 h
Structure (SMILES),MIC (Staphylococcus aureus [1]) [µg/mL],MIC (Staphylococcus aureus [2]) [µg/mL],MIC (Staphylococcus aureus [3]) [µg/mL],MIC (Staphylococcus aureus [4]) [µg/mL],MIC (Staphylococcus aureus [5]) [µg/mL],MIC (Staphylococcus aureus [6]) [µg/mL],MIC (Staphylococcus aureus [7]) [µg/mL],MIC (Staphylococcus aureus [9]) [µg/mL],MIC (Staphylococcus aureus [10]) [µg/mL],MIC (Staphylococcus aureus [11]) [µg/mL],MIC (Staphylococcus aureus [13]) [µg/mL],MIC (Staphylococcus aureus [14]) [µg/mL],MIC (Staphylococcus aureus [15]) [µg/mL],MIC (Staphylococcus aureus [16]) [µg/mL],MIC (Staphylococcus aureus [17]) [µg/mL],MIC (Staphylococcus aureus [19]) [µg/mL],MIC (Staphylococcus aureus [20]) [µg/mL],MIC (Staphylococcus aureus [21]) [µg/mL],MIC (Staphylococcus aureus [22]) [µg/mL],MIC (Staphylococcus aureus [24]) [µg/mL],also measured
CN[C@H](CC(C)C)C(=O)N[C@H]1C(=O)N[C@@H](CC(N)=O)C(=O)N[C@H]2C(=O)N[C@H]3C(=O)N[C@H](C(=O)N[C@H](C(=O)O)c4cc(O)cc(O)c4-c4cc3ccc4O)[C@H](O)c3ccc(c(Cl)c3)Oc3cc2cc(c3O[C@@H]2O[C@H](CO)[C@@H](O)[C@H](O)[C@H]2O[C@H]2C[C@](C)(N)[C@H](O)[C@H](C)O2)Oc2ccc(cc2Cl)[C@H]1O [VANCOMYCIN],5,6,1.25,3,8,0.75,1.25,8,8,3,8,1.5,1.25,1.5,1.25,3,5,3,2.5,6,MIC (Staphylococcus aureus [8]): 3 µg/mL; MIC (Staphylococcus aureus [12]): 6 µg/mL; MIC (Staphylococcus aureus [18]): 2.5 µg/mL; MIC (Staphylococcus aureus [23]): 6 µg/mL; MIC (Staphylococcus aureus [25]): 5 µg/mL; MIC (Staphylococcus aureus [26]): 3 µg/mL; MIC (Staphylococcus aureus [27]): 1.5 µg/mL; MIC (Staphylococcus aureus [28]): 6 µg/mL; MIC (Staphylococcus aureus [29]): 6 µg/mL; MIC (Staphylococcus aureus [30]): 5 µg/mL; MIC (Staphylococcus aureus [31]): 6 µg/mL; MIC (Staphylococcus aureus [32]): 8 µg/mL
CC(=O)NC[C@H]1CN(c2ccc(N3CCOCC3)c(F)c2)C(=O)O1 [LINEZOLID],1.5,0.38,3,3,1,3,3,1.25,1.5,1.25,1.5,3,3,3,2.5,1.5,1,1.5,1.75,1.25,MIC (Staphylococcus aureus [33]): 3 µg/mL; MIC (Staphylococcus aureus [34]): 1.5 µg/mL; MIC (Staphylococcus aureus [35]): 3 µg/mL; MIC (Staphylococcus aureus [36]): 1.5 µg/mL; MIC (Staphylococcus aureus [37]): 1 µg/mL; MIC (Staphylococcus aureus [38]): 1.5 µg/mL; MIC (Staphylococcus aureus [39]): 3 µg/mL; MIC (Staphylococcus aureus [27]): 1.5 µg/mL; MIC (Staphylococcus aureus [28]): 1 µg/mL; MIC (Staphylococcus aureus [30]): 1.5 µg/mL; MIC (Staphylococcus aureus [40]): 3 µg/mL; MIC (Staphylococcus aureus [31]): 1.5 µg/mL; MIC (Staphylococcus aureus [41]): 1 µg/mL; MIC (Staphylococcus aureus [32]): 1.5 µg/mL
